The record followed here is patent publication US7795261B2, “Substituted 1-piperidin-4-yl-4-pyrrolidin-3-yl-piperazine derivatives and their use as neurokinin antagonists” (Janssen Pharmaceutica NV, priority 2002, dated 2010).

Holding throughout (format): cell-based
One test has as its target T1, NK2 (Homo sapiens, UniProt P21452).
T1 sequence (P21452 1-398): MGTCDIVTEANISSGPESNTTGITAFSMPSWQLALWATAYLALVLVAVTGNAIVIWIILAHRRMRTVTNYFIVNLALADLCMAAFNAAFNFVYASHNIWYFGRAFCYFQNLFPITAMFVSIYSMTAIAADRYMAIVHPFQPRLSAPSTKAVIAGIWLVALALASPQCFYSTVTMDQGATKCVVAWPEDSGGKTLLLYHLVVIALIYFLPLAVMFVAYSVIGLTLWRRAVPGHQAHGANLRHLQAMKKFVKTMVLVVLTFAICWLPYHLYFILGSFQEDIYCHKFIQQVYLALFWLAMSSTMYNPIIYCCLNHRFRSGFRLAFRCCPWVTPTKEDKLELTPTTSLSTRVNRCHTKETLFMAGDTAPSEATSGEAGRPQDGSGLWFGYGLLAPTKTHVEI
The experiment in a line: Signal transduction (ST), intracellular Ca++ (FLIPR), NK2. The conditions noted are these: read-out: pIC50 NK2 (converted).

For another test, the target named is T2, NK3 (Homo sapiens, UniProt P29371).
T2 sequence (P29371 1-465): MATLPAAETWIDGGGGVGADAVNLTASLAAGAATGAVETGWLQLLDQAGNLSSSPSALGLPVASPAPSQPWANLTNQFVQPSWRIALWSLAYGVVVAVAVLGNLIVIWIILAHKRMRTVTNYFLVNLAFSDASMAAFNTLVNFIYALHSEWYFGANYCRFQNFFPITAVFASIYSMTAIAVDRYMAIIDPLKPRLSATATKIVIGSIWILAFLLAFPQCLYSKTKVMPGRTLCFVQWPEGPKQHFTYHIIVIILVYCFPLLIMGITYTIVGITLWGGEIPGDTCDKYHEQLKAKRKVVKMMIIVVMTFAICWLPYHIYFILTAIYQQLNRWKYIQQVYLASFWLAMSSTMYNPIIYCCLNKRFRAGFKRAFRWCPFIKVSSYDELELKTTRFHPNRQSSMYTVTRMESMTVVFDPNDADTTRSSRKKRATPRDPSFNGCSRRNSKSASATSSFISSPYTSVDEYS
In words: Signal transduction (ST), intracellular Ca++ (FLIPR), NK3. The conditions noted are these: read-out: pIC50 NK3 (converted).

The next test addresses NK1 (Homo sapiens, UniProt P25103). In words: Signal transduction (ST), intracellular Ca++ (FLIPR), NK1 antagonistic activity. The conditions noted are these: read-out: pIC50 NK1 (converted). The gist of the method:
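Antagonist IC50 was fitted by non-linear regression of peak intracellular Ca++ signals measured on FLIPR after agonist challenge. Beforehand, Fluo3-loaded confluent cells received antagonists over a concentration range for 20 min at room temperature in Ca++ Krebs buffer, pH 7.4.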

NK1, sequence (P25103 whole entry): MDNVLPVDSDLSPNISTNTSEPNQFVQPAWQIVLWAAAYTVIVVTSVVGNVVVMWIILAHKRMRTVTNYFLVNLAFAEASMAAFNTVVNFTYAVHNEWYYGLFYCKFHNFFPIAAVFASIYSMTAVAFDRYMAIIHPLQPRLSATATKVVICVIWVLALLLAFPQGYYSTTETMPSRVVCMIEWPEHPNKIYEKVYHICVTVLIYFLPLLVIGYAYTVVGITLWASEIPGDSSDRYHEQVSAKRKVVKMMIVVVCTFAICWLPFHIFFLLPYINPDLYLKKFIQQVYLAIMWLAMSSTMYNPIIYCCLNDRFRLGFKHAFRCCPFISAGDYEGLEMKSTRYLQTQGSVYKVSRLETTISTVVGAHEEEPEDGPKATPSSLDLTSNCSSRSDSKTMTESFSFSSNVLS

For the compound `Cn1cccc1C(=O)CN1CCC(N2CCN([C@H]3CCN(C(=O)c4cc(C(F)(F)F)cc(C(F)(F)F)c4)[C@H](Cc4ccccc4)C3)CC2)C1` (stereo partly drawn) [Compound 103], the IC50 at NK2 is 5010 nM; at NK3, 398 nM; at NK1, 15.8 nM.
In the same order, the values of `O=C(C(NCc1ccccc1)c1ccccc1)N1CCC(N2CCN([C@H]3CCN(C(=O)c4cc(C(F)(F)F)cc(C(F)(F)F)c4)[C@H](Cc4ccccc4)C3)CC2)C1` (stereo partly drawn) [Compound 107] are 3160 nM, 631 nM and 100 nM.
The corresponding values for `CC(C)(C)OC(=O)N1CCC[C@H]1C(=O)N1CCC(N2CCN([C@H]3CCN(C(=O)c4cc(C(F)(F)F)cc(C(F)(F)F)c4)[C@H](Cc4ccccc4)C3)CC2)C1` (stereo partly drawn) [Compound 115] are 7940 nM, 316 nM and 20 nM.
The corresponding values for `CC(C)(C)C(=O)N1CCC(N2CCN(C3CCN(C(=O)c4cc(C(F)(F)F)cc(C(F)(F)F)c4)C(Cc4ccccc4)C3)CC2)C1` (stereo not drawn) [Compound 167] are 2000 nM, 631 nM and 7.94 nM.
Take `O=C(c1c(Cl)cccc1Cl)N1CCC(N2CCN([C@H]3CCN(C(=O)c4cc(C(F)(F)F)cc(C(F)(F)F)c4)[C@H](Cc4ccccc4)C3)CC2)C1` (stereo partly drawn) [Compound 169]: the IC50 at NK2 is 2510 nM; on NK3 it was 251 nM; on NK1, 12.6 nM.
The corresponding values for `O=C(c1cnccn1)N1CCC(N2CCN(C3CCN(C(=O)c4cc(C(F)(F)F)cc(C(F)(F)F)c4)C(Cc4ccc(Cl)c(Cl)c4)C3)CC2)C1` (stereo not drawn) [Compound 171] are 794 nM, 251 nM and 6.31 nM.
In the same order, the values of `O=C(C1CCOC1)N1CCC(N2CCN(C3CCN(C(=O)c4cc(C(F)(F)F)cc(C(F)(F)F)c4)C(Cc4ccc(Cl)c(Cl)c4)C3)CC2)C1` (stereo not drawn) [Compound 172] are 794 nM, 398 nM and 7.94 nM.
In the case of `O=C(c1ccoc1)N1CCC(N2CCN(C3CCN(C(=O)c4cc(C(F)(F)F)cc(C(F)(F)F)c4)C(Cc4ccc(Cl)c(Cl)c4)C3)CC2)C1` (stereo not drawn) [Compound 173], the IC50 on NK2 was 794 nM; on NK3, 251 nM; on NK1, 20 nM.
As to `O=C(c1ccccc1F)N1CCC(N2CCN(C3CCN(C(=O)c4cc(C(F)(F)F)cc(C(F)(F)F)c4)C(Cc4ccc(Cl)c(Cl)c4)C3)CC2)C1` (stereo not drawn) [Compound 174], the IC50 on NK2 is 2000 nM; at NK3, 1000 nM; at NK1 it was 20 nM.
In the same order, the values of `O=C(c1cccs1)N1CCC(N2CCN(C3CCN(C(=O)c4cc(C(F)(F)F)cc(C(F)(F)F)c4)C(Cc4ccc(Cl)c(Cl)c4)C3)CC2)C1` (stereo not drawn) [Compound 175] are 1000 nM, 398 nM and 25.1 nM.
In the same order, the values of `CC(C(=O)N1CCC(N2CCN(C3CCN(C(=O)c4cc(C(F)(F)F)cc(C(F)(F)F)c4)C(Cc4ccc(Cl)c(Cl)c4)C3)CC2)C1)c1ccccc1` (stereo not drawn) [Compound 176] are 2510 nM, 1000 nM and 20 nM.
The corresponding values for `O=C(C1CCCCC1)N1CCC(N2CCN([C@H]3CCN(C(=O)c4cc(C(F)(F)F)cc(C(F)(F)F)c4)[C@H](Cc4ccccc4)C3)CC2)C1` (stereo partly drawn) [Compound 178] are 2000 nM, 251 nM and 10 nM.
For the compound `CC(C)(C)OC(=O)NC(C)(C)C(=O)N1CCC(N2CCN(C3CCN(C(=O)c4cc(C(F)(F)F)cc(C(F)(F)F)c4)C(Cc4ccccc4)C3)CC2)C1` (stereo not drawn) [Compound 205], the IC50 at NK2 was 3160 nM; on NK3 it was 251 nM; on NK1, 10 nM.
Turning to `CC(C)(C)OC(=O)N1CCCCC1C(=O)N1CCC(N2CCN(C3CCN(C(=O)c4cc(C(F)(F)F)cc(C(F)(F)F)c4)C(Cc4ccccc4)C3)CC2)C1` (stereo not drawn) [Compound 206], the IC50 is 794 nM at NK2, 251 nM on NK3 and 10 nM at NK1.
The corresponding values for `O=C(c1ccoc1)N1CCC(N2CCN(C3CCN(C(=O)c4cc(C(F)(F)F)cc(C(F)(F)F)c4)C(Cc4ccc(F)c(F)c4)C3)CC2)C1` (stereo not drawn) [Compound 226] are 1260 nM, 501 nM and 6.31 nM.
In the same order, the values of `O=C(c1ccoc1)N1CC[C@H](N2CCN([C@@H]3CCN(C(=O)c4cc(C(F)(F)F)cc(C(F)(F)F)c4)[C@@H](Cc4ccc(Cl)c(Cl)c4)C3)CC2)C1` [Compound 250] are 6310 nM, 5010 nM and 100 nM.
The corresponding values for `O=C(c1ccsc1)N1CC[C@H](N2CCN([C@@H]3CCN(C(=O)c4cc(C(F)(F)F)cc(C(F)(F)F)c4)[C@@H](Cc4ccc(Cl)c(Cl)c4)C3)CC2)C1` [Compound 251] are 6310 nM, 5010 nM and 50.1 nM.
Regarding `O=C(c1ccccc1Cl)N1CCC(N2CCN(C3CCN(C(=O)c4cc(C(F)(F)F)cc(C(F)(F)F)c4)C(Cc4ccc(F)c(F)c4)C3)CC2)C1` (stereo not drawn) [Compound 255], the IC50 on NK2 is 1260 nM; on NK3 it was 398 nM; at NK1 it was 15.8 nM.
Turning to `O=C(c1c(Cl)cccc1Cl)N1CCC(N2CCN(C3CCN(C(=O)c4cc(C(F)(F)F)cc(C(F)(F)F)c4)C(Cc4ccc(F)c(F)c4)C3)CC2)C1` (stereo not drawn) [Compound 256], the results for the IC50 at NK2, on NK3 and at NK1 were 1580 nM, 398 nM and 25.1 nM, respectively.
The corresponding values for `CC(C)(C)OC(=O)N1CC[C@@H](N2CCN([C@H]3CCN(C(=O)c4cc(C(F)(F)F)cc(C(F)(F)F)c4)[C@H](Cc4ccc(Cl)c(Cl)c4)C3)CC2)C1` [Compound 261] are 1260 nM, 501 nM and 31.6 nM.
In the same order, the values of `O=C(C1CC1)N1CC[C@@H](N2CCN([C@H]3CCN(C(=O)c4cc(C(F)(F)F)cc(C(F)(F)F)c4)[C@H](Cc4ccc(Cl)c(Cl)c4)C3)CC2)C1` [Compound 263] are 794 nM, 316 nM and 6.31 nM.
The corresponding values for `O=C(c1cccs1)N1CC[C@@H](N2CCN([C@H]3CCN(C(=O)c4cc(C(F)(F)F)cc(C(F)(F)F)c4)[C@H](Cc4ccc(Cl)c(Cl)c4)C3)CC2)C1` [Compound 264] are 1580 nM, 200 nM and 12.6 nM.
On to `O=C(c1c(Cl)cccc1Cl)N1CC[C@@H](N2CCN([C@H]3CCN(C(=O)c4cc(C(F)(F)F)cc(C(F)(F)F)c4)[C@H](Cc4ccc(Cl)c(Cl)c4)C3)CC2)C1` [Compound 265], for which the IC50 on NK2 is 1580 nM; at NK3, 158 nM; at NK1 it was 20 nM.
For the compound `O=C(c1ccccc1Cl)N1CC[C@@H](N2CCN([C@H]3CCN(C(=O)c4cc(C(F)(F)F)cc(C(F)(F)F)c4)[C@H](Cc4ccc(Cl)c(Cl)c4)C3)CC2)C1` [Compound 266], the IC50 is 1000 nM on NK2, 316 nM at NK3 and 7.94 nM at NK1.
Regarding `O=C(c1ccco1)N1CC[C@@H](N2CCN([C@H]3CCN(C(=O)c4cc(C(F)(F)F)cc(C(F)(F)F)c4)[C@H](Cc4ccc(Cl)c(Cl)c4)C3)CC2)C1` [Compound 267], the IC50 on NK2 was 631 nM; at NK3, 200 nM; on NK1, 7.94 nM.
On to `O=C(c1cc(C(F)(F)F)cc(C(F)(F)F)c1)N1CC[C@H](N2CCN([C@@H]3CCN(S(=O)(=O)c4cccs4)C3)CC2)C[C@H]1Cc1ccc(Cl)c(Cl)c1` [Compound 268], for which the IC50 on NK2 is 251 nM; on NK3 it was 1000 nM; at NK1, 20 nM.
The corresponding values for `N#Cc1ccc(C(=O)N2CCC(N3CCN([C@H]4CCN(C(=O)c5cc(C(F)(F)F)cc(C(F)(F)F)c5)[C@H](Cc5ccccc5)C4)CC3)C2)cc1` (stereo partly drawn) [Compound 271] are 5010 nM, 2000 nM and 6.31 nM.
In the same order, the values of `O=C(C(O)c1ccccc1)N1CCC(N2CCN([C@H]3CCN(C(=O)c4cc(C(F)(F)F)cc(C(F)(F)F)c4)[C@H](Cc4ccccc4)C3)CC2)C1` (stereo partly drawn) [Compound 275] are 2510 nM, 5010 nM and 10 nM.
As for `O=C(c1cc(C(F)(F)F)cc(C(F)(F)F)c1)N1CC[C@H](N2CCN(C3CCN(C(=O)C4(O)CC4)C3)CC2)C[C@H]1Cc1ccccc1` (stereo partly drawn) [Compound 276], the IC50 was 3160 nM at NK2, 5010 nM on NK3 and 10 nM at NK1.
`O=C(c1ccsc1)N1CCC(N2CCN(C3CCN(C(=O)c4cc(C(F)(F)F)cc(C(F)(F)F)c4)C(Cc4ccc(F)cc4)C3)CC2)C1` (stereo not drawn) [Compound 278]: the IC50 at NK2 is 3980 nM; at NK3 it was 2000 nM; on NK1 it was 15.8 nM.
